Laboratory results reported in patent publication US20090215710A1, “CARBOHYDRATE BASED TOLL-LIKE RECEPTOR (TLR) ANTAGONISTS” (RELIANCE LIFE SCIENCES PVT. LTD., priority 2007, published 2009).

Legend:
TLR6 = biological target: T1, TLR6 (Homo sapiens, UniProt Q9Y2C9); assay: TLR6 ligand induced TNF-α secretion (ELISA); format: cell-based; details: cells treated with TLR6 ligand 75 ng/ml
T1 construct: endogenous in cells; host or cells: THP-1 monocytes and/or PBMCs
T1 sequence (Q9Y2C9 32-796): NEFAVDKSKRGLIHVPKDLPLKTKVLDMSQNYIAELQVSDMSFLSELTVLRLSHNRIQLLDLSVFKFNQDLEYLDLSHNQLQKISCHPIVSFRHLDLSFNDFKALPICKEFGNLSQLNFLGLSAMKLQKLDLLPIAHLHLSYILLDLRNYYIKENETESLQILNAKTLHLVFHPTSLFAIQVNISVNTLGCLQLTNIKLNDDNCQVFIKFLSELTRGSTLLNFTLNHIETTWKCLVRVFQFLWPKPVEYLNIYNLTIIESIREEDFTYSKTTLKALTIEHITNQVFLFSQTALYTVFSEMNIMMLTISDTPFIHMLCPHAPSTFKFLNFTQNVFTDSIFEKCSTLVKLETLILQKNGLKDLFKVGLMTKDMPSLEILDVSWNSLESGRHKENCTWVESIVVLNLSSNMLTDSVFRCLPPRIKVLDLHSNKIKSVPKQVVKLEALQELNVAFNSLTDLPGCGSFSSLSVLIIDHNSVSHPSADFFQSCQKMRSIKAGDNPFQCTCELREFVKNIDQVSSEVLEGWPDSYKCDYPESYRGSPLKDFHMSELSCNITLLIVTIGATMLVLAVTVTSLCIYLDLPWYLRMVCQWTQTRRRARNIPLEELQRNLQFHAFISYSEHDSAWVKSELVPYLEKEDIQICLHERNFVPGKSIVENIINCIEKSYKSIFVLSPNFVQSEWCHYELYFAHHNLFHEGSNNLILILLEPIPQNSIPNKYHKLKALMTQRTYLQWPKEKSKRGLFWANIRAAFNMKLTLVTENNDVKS
Method: The present invention has checked the effect of various TLR ligands on THP-1 monocytes, PBMCs and their ability to activate and release TNF-α. For this purpose about 9 TLR ligands were used. These ligands were obtained from Apotech Cat; APO-54N-018-K100 and assayed for TNF-α release in culture supernatants.
THP-1 and PBMCs (2×10^5 cells/well) were plated in 96-well plate. The cells were pretreated with RSCL-0409 in DMSO 1 hr prior to TLR ligand treatment. Following 1 hr pre-treatment, the cells were treated with TLR ligands [TLR2, TLR5 and TLR6-75 ng/ml each, TLR3-75 μg/ml, TLR4-750 ng/ml, TLR7, TLR8 and TLR9-7.5 μg/ml) for 24 hrs. The culture supernatant were collected after the stipulated time and assayed for TNF-α release using a Duoset Enzyme-Linked ImmunoSorbent Assay (ELISA) detection Kit (R&D systems, MN 55413, USA; Cat: DY-210 E). Simultaneously supernatants were collected from cells treated with ligands without pre-treatment with RSCL-0409 and only RSCL-0409 without ligand treatment.

TNF-α = assay: TNF response to increasing concentration of LPS in THP-1 cells; format: cell-based, human; details: LPS 1000 ng/ml
Method: The present invention has also conducted experiments to check the ability of RSCL-0409 to inhibit LPS induced TNF-α secretion from THP-1 cells, wherein the studies involved the stimulation of THP-1 cells with increasing concentrations of LPS (62.5 ng/ml to 1000 ng/ml) with and without pre-treatment of cells with different concentrations of RSCL-0409.

RAW264.7 cells = assay: LPS induced nitric oxide (NO) release in RAW 264.7 cells (Griess reaction); format: cell-based; details: RAW264.7, LPS 250 ng/ml
Method: RAW264.7 cells provide an excellent model for evaluations of potential inhibitors on the pathway leading the induction of iNOS and NO production. Nitric oxide production was determined in RAW264.7 cells from the National Center of Cell Science (NCCS, Pune) cultured in color-free DMEM with standard supplements by measuring the amount of nitrite from cell culture supernatant. RAW264.7 cells (5×10^4 per well) were stimulated for 24 hr with or without LPS (250 ng/ml) in the absence of presence of the RSCL-0409. Nitrite was then measured using the Griess reaction. 100 μl of cell culture supernatant was reacted with 100 μl of Griess reagent followed by spectrophotometric measurement at 550 nm. Nitrite concentrations in the supernatants were determined by comparison with a sodium nitrite standard curve. Alongside RSCL-0409 we also used known strong antioxidants (Vit C, Ascorbic acid, Catechin and Trolox) which inhibit NO to comparative antioxidant efficiency.

Balb/c mice = assay: LPS induced TNF-α release in Balb/c mice, pre-treatment; format: in vivo; details: 1 hr post LPS
Method: The present invention has studied the ability of RSCL-0409 to exert protection against inflammatory agents in a mice (Balb/c) model. Balb/c (5-6 weeks) mice were injected with LPS (225 μg) intraperitoneally with and without pretreatment of three concentrations of RSCL-0409 (10 mg/kg, 20 mg/kg and 40 mg/kg). The compound was injected intraperitoneally 30 min before LPS treatment. The mice were monitored for 1 hr post LPS treatment. RSCL-0409 injected alone served as negative control. Blood collection was done retro-orbitally under anesthesia, 1 hr post LPS injection. Serum collected after cells were allowed to settle was analysed for TNF-α secretion.

`COc1ccc(OC2OC3COC(c4ccccc4)OC3C(OC3OC(COC(=O)CCC(C)=O)C(OC(=O)CCl)C(OC(C)=O)C3OC(C)=O)C2NC(=O)C(Cl)(Cl)Cl)cc1` [RSCL-0409, p-Methoxy phenyl-O-(2,3-di-O-acetyl-4-O-chloroacetyl-6-O-levulinoyl-β-D-glucopyranosyl)-(1-3)-2-deoxy-2-trichloroacetamido-4,6-O-benzylidene-α-D-glucopyranoside] was tested, and the “effect on TNF-α secretion” value (TLR6) was “no effect observed”, the “concentration inhibiting LPS induced TNF-α secretion (as low as)” value (TNF-α) was 10 µM and the “anti-oxidant activity versus reference antioxidants (Vit C, Ascorbic acid, Catechin and Trolox)” value (RAW264.7 cells) was “far more potent”. The “NO secretion induced by LPS” value (RAW264.7 cells; 24 hr) was “inhibited by RSCL-0409 in a concentration dependent manner”, the “reduction of serum TNF production” value (Balb/c mice; 10 mg/kg i.p. 30 min before LPS (225 μg i.p.)) was about 53% and the “reduction of serum TNF production” value (Balb/c mice; 20 mg/kg i.p. 30 min before LPS (225 μg i.p.)) was about 64%. The “reduction of serum TNF production” value (Balb/c mice; 40 mg/kg i.p. 30 min before LPS (225 μg i.p.)) was about 67%.
